This is an account of results in US20210000953A1, “USE OF IMMUNE CHECKPOINT INHIBITORS IN CENTRAL NERVOUS SYSTEMS NEOPLASMS” (Bristol-Myers Squibb Company, priority 2014, published 2021).

The subject of data set [1] is recurrent GBM. Briefly: Study CA209143 safety lead-in cohorts (Cohort 1, 1b): investigator-assessed tumor response per RANO (brain MRI) and overall survival. The format is in vivo, human. As to the method: A randomized, open-label, multicenter, phase 3 study of nivolumab monotherapy versus bevacizumab and a safety study of nivolumab and nivolumab in combination with ipilimumab is conducted in adult (>18 years) subjects with a first recurrence of GBM after treatment with radiotherapy and temozolomide. Since the use of nivolumab and ipilimumab has not previously been studied in subjects with GBM, a safety lead-in (Cohort 1) consisting of approximately 10 subjects in each of two treatment arms are enrolled and randomized to treatment with either Arm N (nivolumab monotherapy) or Arm N+I (nivolumab combined with ipilimumab). Tolerability and safety of a treatment arm is determined after all subjects in the arm completed four doses or discontinued dosing prior to completing four doses. A safety evaluation of Cohort 1 is conducted for each arm based on criteria described herein.
In order to better characterize preliminary safety and tolerability for the combination therapy, an additional, non-randomized safety cohort (Cohort 1b) to evaluate an alternate dosing regimen is initiated for the combination therapy (nivolumab 3 mg/kg+ipilimumab 1 mg/kg every 3 weeks for 4 cycles followed by nivolumab 3 mg/kg thereafter). Evaluation of the efficacy of nivolumab+ipilimumab combination therapy will be evaluated separately. Information from subjects treated with combination therapy in Cohort 1 and Cohort 1b will provide a basis for dose selection for future studies in subjects with GBM.
All subjects received efficacy assessments with brain MRI with contrast on Day 1 Week 7, Day 1 Week 13, and then one time every 8 weeks (±1 week). MRIs occurred at ±7 days per scheduled visits. Investigators will obtain more frequent follow-up MRI scans as medically indicated.
The primary efficacy measure of the study is overall survival (OS). OS is defined as the time between the date of randomization and the date of death due to any cause. OS is followed continuously while subjects are on study drug and every 3 months via in-person or phone contact during the survival follow-up phase of the study.
Investigator-assessed tumor response is based upon published RANO criteria. Tumor assessments are performed as shown above in the imaging assessment for the study. Radiologic response was assessed by comparing the pretreatment baseline and on-treatment MRI scans. Radiologic progression was determined by using the smallest tumor measurement at either the pretreatment baseline or after initiation of study medication.
A complete response required: complete disappearance of all enhancing measurable and nonmeasurable disease sustained for at least 4 weeks; no new lesions; stable or improved nonenhancing (T2/FLAIR) lesions; patients must be off corticosteroids (or on physiologic replacement doses only); and stable or improved clinically. Patients with nonmeasurable disease only cannot have a complete response; the best response possible is stable disease. […]

The test system of data set [2] is TILs and PBMCs. Briefly: Anti-tumor-associated antigen (TAA) activity, dual-color IFNγ/granzyme B FluoroSpot assay. Type of data set: cell-based, human. Conditions: cells isolated from patients treated with nivolumab monotherapy (FIG. 17). As for the experimental part:
Analyses were performed on peripheral blood drawn from patients at predetermined time points (FIG. 13) and tumor tissue samples were obtained if resection was performed at the time of progression or suspected progression. Baseline and on-treatment samples were obtained from patients (n=20) randomized 1:1 to receive either nivolumab 3 mg/kg every 2 weeks (Q2W) or nivolumab 1 mg/kg+ipilimumab 3 mg/kg every 3 weeks followed by nivolumab 3 mg/kg Q2W (FIG. 13). Phenotypic, maturation, and proliferation analyses were performed using flow cytometry with population-specific antibody panels (Table 11). Cytokine release analyses were carried out on supernatants from sorted Tregs (CD4+CD25+CD127−)±stimulation (PMA+ionomycin). The anti-tumor-associated antigen (TAA) activity of peripheral blood mononuclear cells (PBMCs) and tumor-infiltrating lymphocytes (TILs) was evaluated. Cells were stimulated with interleukin (IL)-2, IL-15, and TAA peptides; after 9 days of culture with IL-2 and IL-15, cells were restimulated with IL-2, IL-15, and TAA peptides. Production of interferon (IFN)γ/granzyme B was assayed using a dual-color FluoroSpot assay.

For data set [3] the following is noted: in vivo; cited from earlier work.
Data set [4] has as its target T1, PD-1 (Homo sapiens, UniProt Q15116).
T1 construct: Receptor-occupancy data from 15 subjects who received 0.3 mg/kg to 10 mg/kg dosing with nivolumab; endogenous in cells
The data set can be described thus: PD-1 receptor occupancy in subjects dosed with nivolumab. Type of data set: in vivo. The settings on record: 15 subjects, 0.3 mg/kg to 10 mg/kg, across all doses. As for the experimental part: When used in combinations with other anti-cancer agents, the dosage of an anti-PD-1 antibody can be lowered compared to the monotherapy dose. Dosages of nivolumab that are lower than the typical 3 mg/kg, but not less than 0.001 mg/kg, are subtherapeutic dosages. The subtherapeutic doses of an anti-PD-1 antibody used in the methods herein are higher than 0.001 mg/kg and lower than 3 mg/kg. In some embodiments, a subtherapeutic dose is about 0.001 mg/kg-about 1 mg/kg, about 0.01 mg/kg-about 1 mg/kg, about 0.1 mg/kg-about 1 mg/kg, or about 0.001 mg/kg-about 0.1 mg/kg body weight. In some embodiments, the subtherapeutic dose is at least about 0.001 mg/kg, at least about 0.005 mg/kg, at least about 0.01 mg/kg, at least about 0.05 mg/kg, at least about 0.1 mg/kg, at least about 0.5 mg/kg, or at least about 1.0 mg/kg body weight. Receptor-occupancy data from 15 subjects who received 0.3 mg/kg to 10 mg/kg dosing with nivolumab indicate that PD-1 occupancy appears to be dose-independent in this dose range. Across all doses, the mean occupancy rate was 85% (range, 70% to 97%), with a mean plateau occupancy of 72% (range, 59% to 81%). In some embodiments, 0.3 mg/kg dosing can allow for sufficient exposure to lead to maximal biologic activity.

Where [5] appears, read: exploratory analysis, Cohort 1, recurrent GBM, N = 10 per arm, same regimens.
Where [6] appears, read: investigator-assessed per RANO, Cohort 1, recurrent GBM, N = 10 per arm, nivolumab 3 mg/kg Q2W or nivolumab 1 mg/kg + ipilimumab 3 mg/kg Q3W x4 then nivolumab 3 mg/kg Q2W.

“Also recorded” adds a separate entry of the source.

T1 sequence (Q15116 25-288): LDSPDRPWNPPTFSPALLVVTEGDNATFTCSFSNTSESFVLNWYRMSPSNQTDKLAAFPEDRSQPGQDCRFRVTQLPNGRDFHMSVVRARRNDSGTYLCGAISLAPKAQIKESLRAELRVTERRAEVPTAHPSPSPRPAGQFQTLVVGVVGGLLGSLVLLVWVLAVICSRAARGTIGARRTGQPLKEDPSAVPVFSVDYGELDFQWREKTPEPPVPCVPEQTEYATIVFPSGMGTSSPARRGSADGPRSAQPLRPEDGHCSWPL

nivolumab: the “Patients who experienced stable disease or better” value in data set [1] (Cohort 1 nivolumab monotherapy 3 mg/kg, RANO) is reported as 6/10. Further, the “Time on treatment of the one patient still receiving nivolumab at cutoff” value in data set [1] (Cohort 1 nivolumab monotherapy arm, cutoff Sep. 9, 2015) is listed as 17.5 months. Moreover, the “Brain MRI following three treatments” value in data set [1] (case: Cohort 1 Arm N, nivolumab 3 mg/kg monotherapy) is “disease progression as per RANO”. In data set [1] (case: MGMT methylated, EGFRvIII positive GBM, nivolumab 3 mg/kg), the “Response according to RANO criteria” value is given as “partial response”. In data set [1] (case: nivolumab 3 mg/kg), the “Brain MRI four weeks after resection” value is on record as “did not show tumor growth”. Besides, the “Brain MRI on Aug. 28, 2014” value in data set [1] (case: nivolumab 3 mg/kg delayed, dexamethasone 4 mg BID) is on record as “improvement with resolution of rim enhancement”. For the same substance, in data set [1] (case: nivolumab 3 mg/kg, treated 227 days), the “Death, time after randomization” value is recorded as 397 days. Besides, in data set [1] (case: nivolumab 3 mg/kg, 90 at baseline), the “Karnofsky performance status at all subsequent visits” value was 90. Moreover, the “Time to distant disease progression after resuming nivolumab following surgery” value in data set [1] (case: nivolumab 3 mg/kg, hippocampus and right hypothalamus, proven on autopsy) is reported as 4 months. Also, the “Overall survival: Median, months (95% CI)” value in data set [1] (exploratory analysis, Cohort 1, recurrent GBM, N = 10 per arm, nivolumab 3 mg/kg Q2W or nivolumab 1 mg/kg + ipilimumab 3 mg/kg Q3W x4 then nivolumab 3 mg/kg Q2W, NE: not estimated) is 10.5 (4.1-NE)^ months. Moreover, in data set [1] (setting [5]), the “Overall survival: 6-month rate (95% CI)” value was 70.0% (32.9-89.2); the “Overall survival: 9-month rate (95% CI)” value is recorded as 60.0% (25.3-82.7); the “Overall survival: 12-month rate (95% CI)” value is recorded as 40.0% (12.3-67.0); the “Overall survival: Range, months” value was 4.1-17.6 months. In addition, in data set [1] (setting [6]), the “Best overall response: Complete Response” value is 0 n (%), the “Best overall response: Partial Response” value was 1 (10) n (%), the “Best overall response: Progressive Disease” value is recorded as 3 (30) n (%) and the “Best overall response: Stable Disease” value is 5 (50) n (%). For the same substance, the “Best overall response: Unable to Determine” value in data set [1] (setting [6]) is reported as 1 (10) n (%). Moreover, the “Anti-TAA activity of TILs and PBMCs upon restimulation” value in data set [2] is “increased anti-TAA activity; also recorded: functional responses to TAAs in both TILs and PBMCs”. The Terminal half life result in data set [3] is on record as “up to 25 days”. Also, the “Mean plateau PD-1 occupancy” value in data set [4] (range 59% to 81%) is 72%. Also, in data set [4] (range 70% to 97%), the “Mean PD-1 occupancy rate” value turned out to be 85%.
